The results in this text go back to PubChem BioAssay AID248 (DTP/NCI, 2004).

“And” between values parts separate entries of the source, which are not always exact repeats. Identical values can stand only once. Inconclusive results and toxic doses are left out.

The test deals with L1210 leukemia ip in BDF1 mice, survival T/C. Nature of the test: NCI In Vivo Anticancer Drug Screen. Data for tumor model L1210 Leukemia (intraperitoneal) in B6D2F1 (BDF1) mice. Conditions: endpoint: mean survival time, higher = longer survival. An outline of the steps:
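Survival endpoint. Drug-treated group vs vehicle group, expressed as T divided by C. Tumor passaged by transplantation.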

The mark [1] stands for this setting: dose: 100.0 mg/kg/injection, schedule: Q01DX009 (ip), vehicle: Klucel (hydroxypropylcellulose) (HPC).
Where [2] appears, read: dose: 200.0 mg/kg/injection, schedule: Q01DX009 (ip), vehicle: Klucel (hydroxypropylcellulose) (HPC).
Where [3] appears, read: dose: 400.0 mg/kg/injection, schedule: Q01DX009 (ip), vehicle: Klucel (hydroxypropylcellulose) (HPC).
The mark [4] stands for this setting: dose: 100.0 mg/kg/injection, schedule: Q04DX003 (ip), vehicle: Klucel (hydroxypropylcellulose) (HPC).
Where [5] appears, read: dose: 200.0 mg/kg/injection, schedule: Q04DX003 (ip), vehicle: Klucel (hydroxypropylcellulose) (HPC).
Setting [6] is: dose: 400.0 mg/kg/injection, schedule: Q04DX003 (ip), vehicle: Klucel (hydroxypropylcellulose) (HPC).
Where [7] appears, read: dose: 100.0 mg/kg/injection, schedule: Q01DX001 (ip), vehicle: saline.
Where [8] appears, read: dose: 25.0 mg/kg/injection, schedule: Q01DX009 (ip), vehicle: saline.
[9] abbreviates: dose: 50.0 mg/kg/injection, schedule: Q01DX009 (ip), vehicle: saline.
The mark [10] stands for this setting: dose: 100.0 mg/kg/injection, schedule: Q01DX009 (ip), vehicle: saline.
[11] abbreviates: dose: 100.0 mg/kg/injection, schedule: Q04DX003 (ip), vehicle: saline.
Setting [12] is: dose: 200.0 mg/kg/injection, schedule: Q01DX009 (ip), vehicle: saline.
The mark [13] stands for this setting: dose: 200.0 mg/kg/injection, schedule: Q04DX003 (ip), vehicle: saline.
Where [14] appears, read: dose: 6.25 mg/kg/injection, schedule: Q01DX009 (ip), vehicle: saline.
Where [15] appears, read: dose: 100.0 mg/kg/injection, schedule: Q01DX009 (ip), vehicle: saline with Tween-80.
Setting [16] is: dose: 200.0 mg/kg/injection, schedule: Q01DX009 (ip), vehicle: saline with Tween-80.
The mark [17] stands for this setting: dose: 400.0 mg/kg/injection, schedule: Q01DX009 (ip), vehicle: saline with Tween-80.

`CCOc1ccc2cc(Br)ccc2c1`: the T/C (dose: 50.0 mg/kg/injection, schedule: Q01DX001 (ip), vehicle: Klucel (hydroxypropylcellulose) (HPC)) was 101 % of control; the T/C (dose: 100.0 mg/kg/injection, schedule: Q01DX001 (ip), vehicle: Klucel (hydroxypropylcellulose) (HPC)) was 106 % of control; the T/C (dose: 200.0 mg/kg/injection, schedule: Q01DX001 (ip), vehicle: Klucel (hydroxypropylcellulose) (HPC)) is 97 % of control.

On to `O=C1c2cccc3cccc(c23)C(=O)N1Cc1ccco1`, for which the T/C under setting [1] was 94 % of control, the T/C under setting [2] is 89 % of control and the T/C under setting [3] is 93 % of control.

Consider `CCOC(=O)c1ccc(C(C)=O)o1`, for which the T/C is 100 % of control under setting [4], 106 % of control under setting [5] and 94 % of control under setting [6].

With `Cn1nnc(CCO)n1`, the T/C is, setting by setting: under setting [7], 95 % of control; (dose: 200.0 mg/kg/injection, schedule: Q01DX001 (ip), vehicle: saline) 95 % of control; (dose: 400.0 mg/kg/injection, schedule: Q01DX001 (ip), vehicle: saline) 100 % of control.

As for `Cl[Si](c1ccccc1)(c1ccccc1)c1ccc([Si](Cl)(c2ccccc2)c2ccccc2)cc1`, the T/C was 87 % of control (dose: 100.0 mg/kg/injection, schedule: Q04DX002 (ip), vehicle: saline with Tween-80); 92 % of control (dose: 200.0 mg/kg/injection, schedule: Q04DX002 (ip), vehicle: saline with Tween-80); 96 % of control (dose: 400.0 mg/kg/injection, schedule: Q04DX002 (ip), vehicle: saline with Tween-80).

Turning to `COc1cc(C(=O)OC(C)CN2CCN(C(=O)c3cc(OC)c(OC)c(OC)c3)CC2)cc(OC)c1OC` (centres undefined), the T/C reads like this: under setting [8], 108 % of control; (dose: 25.0 mg/kg/injection, schedule: Q04DX003 (ip), vehicle: saline) 98 % of control; under setting [9], 101 % of control; (dose: 50.0 mg/kg/injection, schedule: Q04DX003 (ip), vehicle: saline) 95 % of control; under setting [10], 104 % of control; under setting [11], 102 % of control. Moreover, the T/C under setting [12] is 98 % of control; the T/C under setting [13] is 102 % of control; the T/C (dose: 400.0 mg/kg/injection, schedule: Q04DX003 (ip), vehicle: saline) was 109 % of control.

In the case of `CC(CCl)NC(=O)Nc1cccc2c1CCCC2` (centres undefined), the T/C reads like this: under setting [1], 102 % of control; under setting [4], 106 % of control; under setting [2], 103 % of control; under setting [5], 106 % of control; under setting [3], 97 % of control; under setting [6], 103 % of control.

Take `COc1ccc2ncccc2c1`: the T/C reads like this: (dose: 100.0 mg/kg/injection, schedule: Q04DX002 (ip), vehicle: saline) 111 % of control; (dose: 200.0 mg/kg/injection, schedule: Q04DX002 (ip), vehicle: saline) 101 % of control; (dose: 400.0 mg/kg/injection, schedule: Q04DX002 (ip), vehicle: saline) 104 % of control.

As for `Cc1cnc2c(=O)[nH]c(N)nc2n1`, the T/C is 97 % of control (dose: 25.0 mg/kg/injection, schedule: Q04DX002 (ip), vehicle: Klucel (hydroxypropylcellulose) (HPC)); 113 % of control (dose: 50.0 mg/kg/injection, schedule: Q04DX002 (ip), vehicle: Klucel (hydroxypropylcellulose) (HPC)); 100 % of control (dose: 100.0 mg/kg/injection, schedule: Q04DX002 (ip), vehicle: Klucel (hydroxypropylcellulose) (HPC)).

`CC1=C(N)C(=O)C2=C(C1=O)N1CC3C(N3C)C1(O)C2COC(N)=O` (centres undefined): the T/C runs as follows: (dose: 15.0 mg/kg/injection, schedule: Q01DX001 (ip), vehicle: acetone) 111 % of control; (dose: 23.0 mg/kg/injection, schedule: Q01DX001 (ip), vehicle: acetone) 109 % of control; (dose: 35.0 mg/kg/injection, schedule: Q01DX001 (ip), vehicle: saline) 111 % of control; (dose: 50.0 mg/kg/injection, schedule: Q01DX001 (ip), vehicle: acetone) 108 % of control; (dose: 50.0 mg/kg/injection, schedule: Q01DX001 (ip), vehicle: saline) 118 % of control.

Consider `CCN1c2ccccc2S(=O)c2cc([N+](=O)[O-])ccc21` (centres undefined), for which the T/C by setting is: (dose: 50.0 mg/kg/injection, schedule: Q01DX001 (ip), vehicle: carboxymethylcellulose (CMC)) 93 % of control; (dose: 100.0 mg/kg/injection, schedule: Q01DX001 (ip), vehicle: carboxymethylcellulose (CMC)) 87 % of control; (dose: 200.0 mg/kg/injection, schedule: Q01DX001 (ip), vehicle: carboxymethylcellulose (CMC)) 96 % of control; (dose: 400.0 mg/kg/injection, schedule: Q01DX001 (ip), vehicle: carboxymethylcellulose (CMC)) 98 % of control.

With `Nc1ccc2ccccc2c1N=Nc1ccc(C(O)C(N)CO)cc1` (centres undefined), the T/C was 117 % of control under setting [14]; 98 % of control (dose: 12.5 mg/kg/injection, schedule: Q01DX009 (ip), vehicle: saline); 96 % of control under setting [8].

Take `CCc1ccc(P(=O)(O)O)cc1`: the T/C is, setting by setting: (dose: 75.0 mg/kg/injection, schedule: Q01DX001 (ip), vehicle: saline) 94 % of control; (dose: 150.0 mg/kg/injection, schedule: Q01DX001 (ip), vehicle: saline) 103 % of control; (dose: 300.0 mg/kg/injection, schedule: Q01DX001 (ip), vehicle: saline) 88 % of control.

`[C-]#[N+]C([N+]#[C-])=S(C)C`: the T/C under setting [9] is 102 % of control; the T/C under setting [10] is 109 % of control; the T/C under setting [11] was 103 % of control; the T/C under setting [12] was 105 % of control; the T/C under setting [13] was 101 % of control.

`C=CCc1cc(CNCC(C)O)c(O)c(OC)c1` (centres undefined): the T/C runs as follows: (dose: 50.0 mg/kg/injection, schedule: Q04DX003 (ip), vehicle: Klucel (hydroxypropylcellulose) (HPC)) 95 % of control; under setting [4], 93 % of control.

As to `CCC(C)(S(=O)(=O)CC)S(=O)(=O)CC`, the T/C under setting [15] was 105 % of control, the T/C under setting [16] is 102 % of control and the T/C under setting [17] is 100 % of control.

For `Cc1cc(C)n(/N=C/c2cccc(Cl)c2)c(=O)c1C#N`, the T/C under setting [15] is 88 % of control; the T/C (dose: 100.0 mg/kg/injection, schedule: Q04DX003 (ip), vehicle: saline with Tween-80) was 95 % of control; the T/C under setting [16] is 87 % of control; the T/C (dose: 200.0 mg/kg/injection, schedule: Q04DX003 (ip), vehicle: saline with Tween-80) was 90 % of control; the T/C under setting [17] was 92 % of control; the T/C (dose: 400.0 mg/kg/injection, schedule: Q04DX003 (ip), vehicle: saline with Tween-80) is 90 % of control.

Regarding `Nc1ncn(C2CC(O)C(CO)O2)c(=O)n1` (centres undefined), the T/C is, setting by setting: (dose: 0.05 mg/kg/injection, schedule: Q01DX005 (ip), vehicle: saline) 155 % of control; (dose: 0.12 mg/kg/injection, schedule: Q01DX005 (ip), vehicle: saline) 154 % of control; (dose: 0.78 mg/kg/injection, schedule: Q01DX005 (ip), vehicle: saline) 94 % of control; (dose: 1.56 mg/kg/injection, schedule: Q01DX005 (ip), vehicle: saline) 98 % of control; (dose: 1.56 mg/kg/injection, schedule: Q01DX009 (ip), vehicle: saline) 114 % of control; (dose: 3.12 mg/kg/injection, schedule: Q01DX005 (ip), vehicle: saline) 100 % of control. The T/C is 100 % of control (dose: 3.12 mg/kg/injection, schedule: Q01DX009 (ip), vehicle: saline); 86 % of control under setting [14]; 171 % of control under setting [7]; 167 % of control and 174 % of control (dose: 100.0 mg/kg/injection, schedule: Q01DX005 (ip), vehicle: saline); 174 % of control and 198 % of control (dose: 200.0 mg/kg/injection, schedule: Q01DX005 (ip), vehicle: saline); 167 % of control (dose: 300.0 mg/kg/injection, schedule: Q04DX003 (ip), vehicle: saline).
